Test results as given in US20210292807A1, “METHOD FOR TESTING ANTIMICROBIAL SUSCEPTIBILITY” (priority 2017, published 2021).

Test system: Klebsiella isolates
Test: Acoustic flow cytometry-assisted susceptibility test (FAST), MICFAST and S/NS, Klebsiella isolates
Assay type: cell-based, Klebsiella pneumoniae, Klebsiella oxytoca
Method: A 1 mL aliquot of bacterial suspension was centrifuged, washed and resuspended in 1 mL filtered Hank's Buffered Salt Solution (HBSS; comprising about 0.137 M NaCl, about 5.4 mM KCl, about 0.25 mM Na2HPO4, about 0.1 g Glucose, about 0.44 mM KH2PO4, 1.3 mM CaCl2), 1.0 mM MgSO4, about 1.3 mM CaCl2), 1.0 mM MgSO4, and about 4.2 mM NaHCO3) and diluted in series (e.g., in a 1:10 serial dilution) to a final 1:1000 dilution.
One μL (microliter) of SYTO 9 stain (e.g., ThermoFisher Scientific) working stock solution was added to the final dilution at a final concentration of 5 μM and incubated for 5 minutes before counting bacterial events by acoustic flow cytometer (AFC) (Attune, ThermoFisher, Eugene, Oreg., USA), which was used to prepare a standardised inoculum density for susceptibility testing.
An aliquot of bacterial suspension was added to 50 mL centrifuge tubes (Corning, N.Y.) containing 9 mL of pre-warmed (37° C.) filtered MHB to produce a final density of 5×10^5-1×10^6 bacteria per mL. This suspension was incubated at 37° C. with shaking at 100 RPM for 30 minutes to obtain an actively dividing culture. An aliquot of antibiotic working solution from the previously described dilution series (appropriate to the concentration tested) was then added to each tube before a further 30-minute incubation with shaking, during which time a microbroth dilution (MBD) plate was prepared for overnight incubation at 37° C. as previously described in Clinical and Laboratory Standards Institute (2015) Performance Standards for Antimicrobial Susceptibility Testing: Informational Supplement. CLSI document M100-S25. Clinical and Laboratory Standards Institute, 950, West Valley Road, Suite 2500, Wayne, Pa., 19087, USA.
One millilitre of bacterial suspension from each antibiotic concentration was harvested by centrifugation at 7800×g for 5 minutes, washed and diluted 1:10 in filtered HBSS in a light-impermeable microcentrifuge tube, then stained with SYTO 9 stain at a final concentration of 5 μM, and incubated for 5 min before AFC sampling. Hoechst 33342 dye (NucBlue, Thermo Fisher Scientific, Eugene, Oreg., USA) and a SYTO 9/propidium iodide (PI) combination (Thermo Fisher Scientific) were used in a series of replicate experiments.
The acoustic flow cytometer employed was Attune acoustic flow cytometer (Thermo Fisher Scientific), having installed therein a 488 nm blue laser with a 530/30 nm filter on the photomultiplier tube for measuring fluorescence of cells assayed. Alternatively, the Attune NxT acoustic flow cytometer (Thermo Fisher Scientific) can be employed. AFC was calibrated at the beginning of each acquisition session using fluorescently labelled size calibration beads, in accordance with the manufacturer's instructions (ThermoFisher Scientific). The AFC settings were as follows: Forward Scatter (FSC) voltage 3100, FSC threshold 4×1000 AND, blue laser 1 (BL1—530/30 nm) voltage 1900, BL1 threshold 1×1000 AND, high sensitivity, flow rate 25 μL/minute, and an acquisition volume of 125 μL. Acquisition was halted after either collection of 20,000 events across all gates, or after 3 minutes, with each sample acquired in technical triplicate.
Collected data was exported in the FCS 3.0 file format and analysed in Flow v10.0 (FlowJo LLC, Ashland, Oreg., USA) by a single user, blinded to the MIC results by BMD (MICBMD).
Subsequent to quantitative MICFAST determination, the acoustic flow cytometer data were re-analysed in silico to produce a limited sub-set for qualitative susceptibility determination. The six antibiotic dilutions (0 mg/L, 0.25 mg/L, 1 mg/L, 2 mg/L, 4 mg/L and 16 mg/L) most relevant to qualitative susceptibility assessment were used. In silico analysis was restricted to the first technical triplicate of each recorded sample. Gating strategies remained consistent, with the addition of a gate restricting analysis to only those events recorded in the first 60 seconds of acquisition.

[1] = isolate 3000770, England, NDM-1
[2] = isolate 3040820, England, pAmpC
[3] = isolate ATCC BAA 1705, USA, KPC
[4] = isolate K16, Australia, IMP - 4
[5] = isolate K23, Australia, IMP - 4
[6] = isolate KS1, Sri Lanka, OXA-181
[7] = isolate KS2, Sri Lanka, OXA-181
[8] = isolate KS17, Sri Lanka, OXA-181
[9] = isolate KS23, Sri Lanka, OXA-181

## C[C@@H](O)[C@H]1C(=O)N2C(C(=O)O)=C(S[C@@H]3CN[C@H](C(=O)N(C)C)C3)[C@H](C)[C@H]12 [meropenem]
Isolate 2440606, England
  FAST S/NS: S (S = MIC ≤2 mg/L)
  MICFAST: ≤0.25 mg/L
Isolate 2880622, England
  FAST S/NS: S (S = MIC ≤2 mg/L)
  MICFAST: ≤0.25 mg/L
Isolate 2880654, England, KPC
  FAST S/NS: NS (NS = MIC >2 mg/L)
  MICFAST: 32 mg/L
Isolate 2890369, England
  FAST S/NS: S (S = MIC ≤2 mg/L)
  MICFAST: 0.5 mg/L
Isolate 2980639, England
  FAST S/NS: S (S = MIC ≤2 mg/L)
  MICFAST: 0.5 mg/L
[1]
  FAST S/NS: NS (NS = MIC >2 mg/L)
  MICFAST: 8 mg/L
[2]
  FAST S/NS: S (S = MIC ≤2 mg/L)
  MICFAST: ≤0.25 mg/L
Isolate 3080800, England, KPC
  FAST S/NS: NS (NS = MIC >2 mg/L)
  MICFAST: 32 mg/L
Isolate A1, Norway
  FAST S/NS: S (S = MIC ≤2 mg/L)
  MICFAST: ≤0.25 mg/L
Isolate A2, Norway
  FAST S/NS: S (S = MIC ≤2 mg/L)
  MICFAST: ≤0.25 mg/L
Isolate A3, Norway
  FAST S/NS: S (S = MIC ≤2 mg/L)
  MICFAST: ≤0.25 mg/L
Isolate A4, Norway
  FAST S/NS: S (S = MIC ≤2 mg/L)
  MICFAST: ≤0.25 mg/L
Isolate A7, Norway
  FAST S/NS: S (S = MIC ≤2 mg/L)
  MICFAST: ≤0.25 mg/L
Isolate A13, Norway
  FAST S/NS: S (S = MIC ≤2 mg/L)
  MICFAST: ≤0.25 mg/L
Isolate A15, Norway
  FAST S/NS: S (S = MIC ≤2 mg/L)
  MICFAST: ≤0.25 mg/L
Isolate A16, Norway
  FAST S/NS: S (S = MIC ≤2 mg/L)
  MICFAST: ≤0.25 mg/L
Isolate A20, Norway, NDM-1
  FAST S/NS: NS (NS = MIC >2 mg/L)
  MICFAST: 16 mg/L
Isolate ATCC 700603, USA
  FAST S/NS: S (S = MIC ≤2 mg/L)
  MICFAST: ≤0.25 mg/L
[3]
  FAST S/NS: NS (NS = MIC >2 mg/L)
  MICFAST: 8 mg/L
Isolate ATCC BAA 1706, USA
  FAST S/NS: S (S = MIC ≤2 mg/L)
  MICFAST: ≤0.25 mg/L
Isolate K1, Australia, OXA-181
  FAST S/NS: NS (NS = MIC >2 mg/L)
  MICFAST: 32 mg/L
Isolate K2, Australia, OXA-181
  FAST S/NS: NS (NS = MIC >2 mg/L)
  MICFAST: 32 mg/L
Isolate K8, Australia, NDM-1
  FAST S/NS: NS (NS = MIC >2 mg/L)
  MICFAST: >256 mg/L
Isolate K14, Australia, KPC
  FAST S/NS: NS (NS = MIC >2 mg/L)
[4]
  FAST S/NS: S (S = MIC ≤2 mg/L)
  MICFAST: 2 mg/L
[5]
  FAST S/NS: S (S = MIC ≤2 mg/L)
  MICFAST: 0.5 mg/L
[6]
  FAST S/NS: S (S = MIC ≤2 mg/L)
  MICFAST: 2 mg/L
[7]
  FAST S/NS: NS (NS = MIC >2 mg/L)
  MICFAST: 16 mg/L
[8]
  FAST S/NS: NS (NS = MIC >2 mg/L)
  MICFAST: 64 mg/L
[9]
  FAST S/NS: NS (NS = MIC >2 mg/L)
  MICFAST: 64 mg/L
Isolate N17, Sweden, NDM-1
  FAST S/NS: NS (NS = MIC >2 mg/L)
  MICFAST: 32 mg/L
